Tests used:
[1] = target: T1, CDK1:Cyclin-B (Homo sapiens, UniProt P06493); assay: CDK1 Screening Assay; type: biochemical
T1 construct: purchased New England Biolabs, Beverly, Mass; 6020; host or cells: insect cells

[2] = target: T2, murine Aurora-A (Mus musculus, UniProt P97477); assay: Aurora-A Screening Assay; type: biochemical
T2 construct: replaced with the full length protein encoding the murine Aurora-A; made in house; host or cells: sf9 insect cells
T2 sequence (P97477 1-395): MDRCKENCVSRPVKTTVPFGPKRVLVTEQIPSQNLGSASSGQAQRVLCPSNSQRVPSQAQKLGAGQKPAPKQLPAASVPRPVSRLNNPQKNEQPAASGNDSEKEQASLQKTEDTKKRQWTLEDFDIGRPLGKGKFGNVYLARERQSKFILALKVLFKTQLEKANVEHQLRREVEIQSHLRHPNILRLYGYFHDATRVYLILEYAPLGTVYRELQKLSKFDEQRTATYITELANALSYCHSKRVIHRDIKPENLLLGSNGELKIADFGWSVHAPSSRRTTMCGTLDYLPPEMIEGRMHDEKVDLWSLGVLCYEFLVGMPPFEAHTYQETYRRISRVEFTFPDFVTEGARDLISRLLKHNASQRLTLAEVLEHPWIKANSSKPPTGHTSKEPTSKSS

[3] = target: T3, HER2 cytoplasmic domain (Homo sapiens, UniProt P04626); assay: HER2 Kinase Screening Assay; type: biochemical; settings: > means no observed 50% inhibition at the indicated test concentration; ~ means approximately 50% inhibition at that concentration
T3 construct: polyhistidine (N)

[4] = target: T4, RET cytoplasmic domain (Homo sapiens, UniProt P07949); assay: RET Kinase Screening Assay; type: biochemical
T4 construct: the RET cytoplasmic domain consisting of the last 492 amino acids of the intracellular domain; histidine tag (N); made in house; host or cells: Hi5 insect cells
T4 sequence (P07949 658-1114 limits assumed): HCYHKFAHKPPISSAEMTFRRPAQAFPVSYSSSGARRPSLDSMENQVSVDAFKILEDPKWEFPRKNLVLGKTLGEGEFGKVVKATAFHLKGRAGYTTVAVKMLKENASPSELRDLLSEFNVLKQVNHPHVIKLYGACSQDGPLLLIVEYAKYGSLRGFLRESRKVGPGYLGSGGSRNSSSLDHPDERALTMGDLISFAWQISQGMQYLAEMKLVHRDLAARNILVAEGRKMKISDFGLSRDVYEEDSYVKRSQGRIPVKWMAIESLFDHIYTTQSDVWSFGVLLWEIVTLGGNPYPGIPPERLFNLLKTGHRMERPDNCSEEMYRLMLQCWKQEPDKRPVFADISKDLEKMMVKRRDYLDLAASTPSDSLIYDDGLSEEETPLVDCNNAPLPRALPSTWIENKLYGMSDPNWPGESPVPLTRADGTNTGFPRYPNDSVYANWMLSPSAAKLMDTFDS

[5] = system: HeLa cervical adenocarcinoma; assay: Inhibition of in vitro cell proliferation (HeLa); type: cell-based, human; settings: Homo sapiens, 14C-thymidine incorporation;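 further: cells exposed to compound for 24 h, then labelled 24 h with methyl 14C-thymidine, with uptake into DNA counted by scintillation against DMSO-only control wells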
[6] = system: HCT-116 colon carcinoma; assay: Inhibition of in vitro cell proliferation (HCT116); type: cell-based, human; settings: Homo sapiens, HCT-116, 14C-thymidine incorporation;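 further: cells exposed to compound for 24 h, then 14C-thymidine added for a further 24 h and its uptake into DNA counted by scintillation, DMSO-only wells as control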
[7] = system: A375 malignant melanoma; assay: Inhibition of in vitro cell proliferation (A375); type: cell-based, human; settings: Homo sapiens, A-375, 14C-thymidine incorporation;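 further: cells plated for 24 h, given compound for 24 h, then labelled with 14C-thymidine for another 24 h, with DMSO-only wells as control and counts read by scintillation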
[8] = target: T5, rat VEGF-R2 kinase domain (Rattus norvegicus, UniProt O08775); assay: VEGF-R2 Screening Assay; type: biochemical; settings: > means no observed 50% inhibition at the indicated test concentration; ~ means approximately 50% inhibition at that concentration; read-out: IC50 VEGF-R2
T5 construct: amino acids 786-1343 of the rat VEGF-R2 kinase domain; polyhistidine (N)
T5 sequence (O08775 786-1343): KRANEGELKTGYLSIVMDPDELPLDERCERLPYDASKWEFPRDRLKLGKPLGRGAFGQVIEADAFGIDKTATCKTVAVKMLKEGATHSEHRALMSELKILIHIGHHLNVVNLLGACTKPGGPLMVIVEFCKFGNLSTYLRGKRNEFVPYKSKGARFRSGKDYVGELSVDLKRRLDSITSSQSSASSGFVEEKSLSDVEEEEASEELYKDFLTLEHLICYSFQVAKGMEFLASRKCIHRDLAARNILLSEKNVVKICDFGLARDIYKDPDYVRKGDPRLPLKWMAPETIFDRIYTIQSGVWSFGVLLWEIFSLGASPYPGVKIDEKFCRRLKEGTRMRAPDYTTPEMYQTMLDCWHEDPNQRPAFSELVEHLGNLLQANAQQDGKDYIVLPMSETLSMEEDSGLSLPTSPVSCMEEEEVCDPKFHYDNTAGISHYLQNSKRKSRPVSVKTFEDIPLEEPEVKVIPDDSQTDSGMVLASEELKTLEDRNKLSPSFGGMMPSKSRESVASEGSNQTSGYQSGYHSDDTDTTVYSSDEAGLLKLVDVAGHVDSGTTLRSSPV

T3 sequence (P04626 676-1255 limits assumed): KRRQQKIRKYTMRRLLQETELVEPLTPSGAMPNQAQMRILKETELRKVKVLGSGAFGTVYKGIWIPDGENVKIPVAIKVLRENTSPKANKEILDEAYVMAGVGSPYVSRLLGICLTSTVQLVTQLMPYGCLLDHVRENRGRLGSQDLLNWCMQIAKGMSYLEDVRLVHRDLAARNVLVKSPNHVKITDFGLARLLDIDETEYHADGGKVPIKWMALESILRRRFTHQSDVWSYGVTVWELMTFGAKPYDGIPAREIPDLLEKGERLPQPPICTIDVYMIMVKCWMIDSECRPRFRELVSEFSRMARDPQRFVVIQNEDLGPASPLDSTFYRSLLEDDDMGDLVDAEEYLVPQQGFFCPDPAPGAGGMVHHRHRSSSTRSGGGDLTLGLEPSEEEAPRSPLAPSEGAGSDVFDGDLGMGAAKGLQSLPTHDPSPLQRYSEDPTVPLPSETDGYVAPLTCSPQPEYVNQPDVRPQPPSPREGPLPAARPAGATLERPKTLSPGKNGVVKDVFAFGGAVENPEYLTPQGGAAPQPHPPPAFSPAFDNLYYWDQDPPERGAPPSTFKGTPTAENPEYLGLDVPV
T1 sequence (P06493 whole entry): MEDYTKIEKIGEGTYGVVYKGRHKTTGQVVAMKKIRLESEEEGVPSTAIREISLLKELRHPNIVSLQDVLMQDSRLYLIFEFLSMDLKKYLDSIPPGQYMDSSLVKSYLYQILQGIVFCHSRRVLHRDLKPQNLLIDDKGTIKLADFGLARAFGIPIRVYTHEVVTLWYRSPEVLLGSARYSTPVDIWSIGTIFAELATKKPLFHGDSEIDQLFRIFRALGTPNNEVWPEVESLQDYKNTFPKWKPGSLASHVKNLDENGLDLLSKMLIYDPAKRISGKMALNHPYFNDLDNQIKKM
T1 sequence (P14635 whole entry partner): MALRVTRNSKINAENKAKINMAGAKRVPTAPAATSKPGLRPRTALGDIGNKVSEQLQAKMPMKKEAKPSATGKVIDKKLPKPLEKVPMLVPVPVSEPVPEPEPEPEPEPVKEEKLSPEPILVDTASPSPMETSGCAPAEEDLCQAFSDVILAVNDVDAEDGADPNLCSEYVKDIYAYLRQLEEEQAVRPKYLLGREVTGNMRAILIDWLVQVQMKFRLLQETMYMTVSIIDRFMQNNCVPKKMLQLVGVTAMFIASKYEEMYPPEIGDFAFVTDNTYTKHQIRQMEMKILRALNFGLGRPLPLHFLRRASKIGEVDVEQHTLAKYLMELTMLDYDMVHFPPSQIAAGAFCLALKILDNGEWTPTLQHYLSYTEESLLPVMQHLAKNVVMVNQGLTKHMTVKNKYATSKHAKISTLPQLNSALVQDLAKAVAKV

| SMILES | IC50 [1] [µM] | IC50 [2] [µM] | IC50 [3] [µM] | IC50 [4] [µM] | IC50 [5] [µM] | IC50 [6] [µM] | IC50 [7] [µM] | IC50 [8] [µM] |
| --- | --- | --- | --- | --- | --- | --- | --- | --- |
| CCON=Cc1c(N)ncnc1Oc1ccc2[nH]c(C)cc2c1F [Cpd 1, 4-amino-6-(4-fluoro-2-methyl-1H-indol-5-yloxy)-pyrimidine-5-carbaldehyde O-ethyl-oxime] | > 100 | > 100 | > 100 | > 100 | 0.032 | 0.036 | 0.027 |  |
| CON=Cc1c(N)ncnc1Oc1ccc2ncccc2c1 [Cpd 5, 4-amino-6-(quinolin-6-yloxy)-pyrimidine-5-carbaldehyde O-methyl-oxime] | > 100 | > 10 | > 100 | 2.01 | 3.43 | 2.87 | 1.82 |  |
| CON=Cc1c(N)ncnc1Oc1ccc2cccnc2c1 [Cpd 6, 4-amino-6-(quinolin-7-yloxy)-pyrimidine-5-carbaldehyde O-methyl-oxime] | > 100 | > 100 | > 10 | > 10 | 1.82 | 2.62 | 0.886 |  |
| CON=Cc1c(N)ncnc1Oc1ccc2[nH]ccc2c1F [Cpd 7, 4-amino-6-(4-fluoro-1H-indol-5-yloxy)-pyrimidine-5-carbaldehyde O-methyl-oxime] | > 100 | > 100 | 0.653 | > 0.1 | 0.401 | 0.365 | 0.492 |  |
| CON=Cc1c(N)ncnc1Oc1cc2cc[nH]c2cc1F [Cpd 8, 4-amino-6-(6-fluoro-1H-indol-5-yloxy)-pyrimidine-5-carbaldehyde O-methyl-oxime] | > 100 | > 10 | > 1 | > 1 | 0.382 | 0.422 | 0.327 |  |
| CON=Cc1c(N)ncnc1Oc1ccc2[nH]cc(C)c2c1 [Cpd 9, 4-amino-6-(3-methyl-1H-indol-5-yloxy)-pyrimidine-5-carbaldehyde O-methyl-oxime] | > 100 | > 10 | 0.208 | > 100 | 0.306 | 0.385 | 0.132 |  |
| CO/N=C/c1c(N)ncnc1Oc1ccc2[nH]ccc2c1 [Cpd 10, 4-amino-6-(1H-indol-5-yloxy)-pyrimidine-5-carbaldehyde O-methyl-oxime] | > 100 | > 10 | 0.697 | 2.23 | 1.87 | 3.52 | 0.783 |  |
| CON=Cc1c(N)ncnc1Oc1ccc2c(ccn2C)c1 [Cpd 11, 4-amino-6-(1-methyl-1H-indol-5-yloxy)-pyrimidine-5-carbaldehyde O-methyl-oxime] | > 100 | > 100 | > 10 | > 100 | 0.375 | 0.749 | 0.326 |  |
| Cc1cc2c(F)c(Oc3ncnc(N)c3C=NOCCO)ccc2[nH]1 [Cpd 12, 4-amino-6-(4-fluoro-2-methyl-1H-indol-5-yloxy)-pyrimidine-5-carbaldehyde O-(2-hydroxy-ethyl)-oxime] | > 100 | ~100 | 9.59 | > 10 | 0.406 | 0.323 | 0.372 |  |
| Cc1cc2c(F)c(Oc3ncnc(N)c3C=NOCCN3CCCC3)ccc2[nH]1 [Cpd 13, 4-amino-6-(4-fluoro-2-methyl-1H-indol-5-yloxy)-pyrimidine-5-carbaldehyde O-(2-pyrrolidin-1yl-ethyl)-oxime] | > 100 | ~100 | > 10 | > 100 | 4.22 | 4.61 | 2.16 |  |
| Cc1cc2c(F)c(Oc3ncnc(N)c3C=NOCCN3CCOCC3)ccc2[nH]1 [Cpd 14, 4-amino-6-(4-fluoro-2-methyl-1H-indol-5-yloxy)-pyrimidine-5-carbaldehyde O-(2-morpholin-4-yl-ethyl)-oxime] | > 100 | > 100 | ~10 | > 100 |  |  |  |  |
| Cc1cc2c(F)c(Oc3ncnc(N)c3C=NOCCN(C)C)ccc2[nH]1 [Cpd 15, 4-amino-6-(4-fluoro-2-methyl-1H-indol-5-yloxy)-pyrimidine-5-carbaldehyde O-(2-dimethylamino-ethyl)-oxime] | > 100 | > 100 | 36.1 | > 100 |  |  |  |  |
| CNCCON=Cc1c(N)ncnc1Oc1ccc2[nH]c(C)cc2c1F [Cpd 16, 4-amino-6-(4-fluoro-2-methyl-1H-indol-5-yloxy)-pyrimidine-5-carbaldehyde O-(2-methylamino-ethyl)-oxime] | > 100 | > 100 | 10.9 | > 100 | 2.01 | 3.04 | 0.345 |  |
| COCCON=Cc1c(N)ncnc1Oc1ccc2[nH]c(C)cc2c1F [Cpd 28, 4-amino-6-(4-fluoro-2-methyl-1H-indol-5-yloxy)-pyrimidine-5-carbaldehyde O-(2-methoxy-ethyl)-oxime] | > 100 | > 100 | ~10 | > 100 | 0.308 | 0.387 | 0.233 |  |
| Cc1cc2c(F)c(Oc3ncnc(N)c3C=NOCCCO)ccc2[nH]1 [Cpd 29, 4-amino-6-(4-fluoro-2-methyl-1H-indol-5-yloxy)-pyrimidine-5-carbaldehyde O-(3-hydroxy-propyl)-oxime] | > 100 | > 10 | 4.63 | > 10 | 0.362 | 0.452 | 0.336 |  |
| C#CCON=Cc1c(N)ncnc1Oc1ccc2[nH]c(C)cc2c1F [Cpd 30, 4-amino-6-(4-fluoro-2-methyl-1H-indol-5-yloxy)-pyrimidine-5-carbaldehyde O-prop-2-ynyl-oxime] | > 100 | > 100 | > 10 | ~10 |  |  |  |  |
| CCCON=Cc1c(N)ncnc1Oc1ccc2[nH]c(C)cc2c1F [Cpd 34, 4-amino-6-(4-fluoro-2-methyl-1H-indol-5-yloxy)-pyrimidine-5-carbaldehyde O-propyl-oxime] | > 100 | > 100 | > 100 | ~10 | 0.04 | 0.03 | 0.028 |  |
| Cc1cc2c(F)c(Oc3ncnc(N)c3C=NOCC3CCCCC3)ccc2[nH]1 [Cpd 35, 4-amino-6-(4-fluoro-2-methyl-1H-indol-5-yloxy)-pyrimidine-5-carbaldehyde O-cyclohexylmethyl-oxime] | > 100 | > 100 | > 100 | > 100 | 22.7 | 16.1 | 4.92 |  |
| Cc1cc2c(F)c(Oc3ncnc(N)c3C=NOCc3ccccc3)ccc2[nH]1 [Cpd 36, 4-amino-6-(4-fluoro-2-methyl-1H-indol-5-yloxy)-pyrimidine-5-carbaldehyde O-benzyl-oxime] | > 100 | > 100 | > 100 | > 100 | 0.266 | 0.311 | 0.062 |  |
| CCCCON=Cc1c(N)ncnc1Oc1ccc2[nH]c(C)cc2c1F [Cpd 37, 4-amino-6-(4-fluoro-2-methyl-1H-indol-5-yloxy)-pyrimidine-5-carbaldehyde O-butyl-oxime] | > 100 | > 100 | > 100 | > 100 | 0.607 | 3 | 0.446 |  |
| CON=Cc1c(N)ncnc1Oc1ccc2c(c1)cc(C)n2C(=O)NCCN(C)C [Cpd 41, 5-[6-amino-5-(methoxyimino-methyl)-pyrimidin-4-yloxy]-2-methyl-indole-1-carboxylic acid (2-dimethylamino-ethyl)-amide] | > 100 |  | > 10 | > 10 | > 10 | > 10 | > 1 | 0.0424 |
